Data on 13 compounds can be found in patent publication US20220220128A1, “HETEROCYCLIC COMPOUNDS AS KINASE INHIBITORS, COMPOSITIONS COMPRISING THE HETEROCYCLIC COMPOUND, AND METHODS OF USE THEREOF” (JS Innopharm (Shanghai) Ltd, priority 2019, published 2022).

The target of one assay is T1, human RET kinase (Homo sapiens, UniProt P07949).
T1 construct: purchased Carna 08-159
Put plainly: RET Kinase Assay (LanthaScreen TR-FRET enzymatic assay). The format is biochemical. The settings on record: 7 nM RET, 23 μM ATP. The procedure: Compounds were tested in a LanthaScreen™ time-resolved fluorescence energy transfer (TR-FRET) enzymatic assay from Invitrogen. The assay used human RET kinase (Carna 08-159). Test compounds were prepared and diluted in DMSO in 3-fold serial dilutions to 50× of the final testing concentrations. The compounds were then further diluted to 5× by the kinase reaction buffer (50 mM HEPES pH 7.5, 0.0015% Brij-35). The enzymatic reaction for compound testing was performed in a white 384-well polypropylene plate (Corning 3573) with a total reaction volume of 25 μl containing 7 nM RET, 3 μM peptide substrate FAM-P2 (GL Biochem 112394), and 23 μM ATP (Sigma A7699-1G). The assay started with loading RET diluted in kinase reaction buffer to wells, followed by addition of equal volume of 5× compounds for 15-min incubation at the room temperature for pre-treatment. The enzymatic reaction was initiated by addition of mixture of the substrate and ATP prepared in kinase reaction buffer. After incubation at 28° C. for one hour, 25 μl of stopper buffer (a mixture of 100 mM HEPES pH 7.5 buffer, 0.015% Brij-35, 50 mM EDTA and 0.2% of coating reagent 3 (Cliper Lifesciences)) and produce TR-FRET signals. After 30 minutes of incubation at room temperature, the plate was read in a Caliper with the following settings: Excitation 340 nm (30)/Emission1 495 nm (10)/Emission2 520 nm (25). The TR-FRET values were dimensionless numbers that were calculated as the ratio of the acceptor ([…]) signal to the donor (Terbium) signal. Percent of control was calculated as the percentage of compound-treated vs 1% DMSO vehicle-treated. The dose-response curves were generated and the IC50s were calculated by nonlinear sigmoid curve fitting using XLFit.
A general note: In TR-FRET formats the signal depends on donor and acceptor labels being close together.

Another assay deals with T2, human KDR kinase (Homo sapiens, UniProt P35968).
T2 construct: purchased Carna 08-191
Put plainly: KDR Kinase Assay (LanthaScreen TR-FRET enzymatic assay). The settings on record: 1.2 nM KDR, 92 μM ATP. The assay is classed as biochemical. How it is done:
Compounds were tested in a LanthaScreen™ time-resolved fluorescence energy transfer (TR-FRET) enzymatic assay from Invitrogen. The assay used human KDR kinase (Carna 08-191). Test compounds were prepared and diluted in DMSO in 3-fold serial dilutions to 50× of the final testing concentrations. The compounds were then further diluted to 5× by the kinase reaction buffer (50 mM HEPES pH 7.5, 0.0015% Brij-35). The enzymatic reaction for compound testing was performed in a white 384-well polypropylene plate (Corning 3573) with a total reaction volume of 25 μl containing 1.2 nM KDR, 3 μM peptide substrate FAM-P22 (GL Biochem 112393), and 92 μM ATP (Sigma A7699-1G). The assay started with loading RET diluted in kinase reaction buffer to wells, followed by addition of equal volume of 5× compounds for 15-min incubation at the room temperature for pre-treatment. The enzymatic reaction was initiated by addition of mixture of the substrate and ATP prepared in kinase reaction buffer. After incubation at 28° C. for one hour, 25 μl of stopper buffer (a mixture of 100 mM HEPES pH 7.5 buffer, 0.015% Brij-35, 50 mM EDTA and 0.2% of coating reagent 3 (Cliper Lifesciences)) and produce TR-FRET signals. After 30 minutes of incubation at room temperature, the plate was read in a Caliper with the following settings: Excitation 340 nm (30)/Emission1 495 nm (10)/Emission2 520 nm (25). The TR-FRET values were dimensionless numbers that were calculated as the ratio of the acceptor ([…]) signal to the donor (Terbium) signal. Percent of control was calculated as the percentage of compound-treated vs 1% DMSO vehicle-treated. The dose-response curves were generated and the IC50s were calculated by nonlinear sigmoid curve fitting using XLFit.

A further assay relates to TT cells. Put plainly: TT Cell Proliferation Assay (WST-8, 8 days). The assay is classed as cell-based. The settings on record: Homo sapiens, TT, 192 h, growth inhibition in TT cells, read-out: TT Cellular Activity. How it is done: Compounds disclosed herein were tested for the inhibition of RET by a cancer cell proliferation assay commonly known as MTT assay. In this assay, a complete media was prepared by adding 10% fetal bovine serum to RPMI-1640 medium (Life technology). TT cells were added to each of 88 wells of a 96 well plate at a seeding density of 6,000 cells/well/90 μL. The cells were allowed to attach to the plate by incubating at 37° C. for 24 hours. The compound was dissolved in DMSO (SIGMA). A solution of test compound was prepared in complete media by serial dilution to obtain the following concentrations: 50 μM, 15 μM, 5 μM, 1.5 μM, 0.5 μM, 0.15 μM, 0.05 μM, 0.015 μM and 0.005 μM. The test compound solution (10 μL) was added to each of 80 cell-containing wells. The final concentrations of the compound were following: 5 μM, 1.5 μM, 0.5 μM, 0.15 μM, 0.05 μM, 0.015 μM, 0.005 μM, 0.0015 μM and 0.0005 μM. The final concentration of DMSO is 0.5%. To the 8 remaining cell-containing wells, only complete media (containing 0.5% DMSO) was added to form a control group in order to measure maximal proliferation. To the remaining 8 empty wells, complete media was added to for a vehicle control group in order to measure background. The plates were incubated at 37° C. for 8 days. 10 μL WST-8 solution (DOJINDO, Cell Counting KIT-8) was added to each well. The plates were further incubated at 37° C. for 5 hours, and then read for the absorbance using a microplate reader at 450 nm. The IC50 was calculated using GraphPad Prism.

Molecules are shown by their SMILES.

T2 sequence (P35968 20-1356): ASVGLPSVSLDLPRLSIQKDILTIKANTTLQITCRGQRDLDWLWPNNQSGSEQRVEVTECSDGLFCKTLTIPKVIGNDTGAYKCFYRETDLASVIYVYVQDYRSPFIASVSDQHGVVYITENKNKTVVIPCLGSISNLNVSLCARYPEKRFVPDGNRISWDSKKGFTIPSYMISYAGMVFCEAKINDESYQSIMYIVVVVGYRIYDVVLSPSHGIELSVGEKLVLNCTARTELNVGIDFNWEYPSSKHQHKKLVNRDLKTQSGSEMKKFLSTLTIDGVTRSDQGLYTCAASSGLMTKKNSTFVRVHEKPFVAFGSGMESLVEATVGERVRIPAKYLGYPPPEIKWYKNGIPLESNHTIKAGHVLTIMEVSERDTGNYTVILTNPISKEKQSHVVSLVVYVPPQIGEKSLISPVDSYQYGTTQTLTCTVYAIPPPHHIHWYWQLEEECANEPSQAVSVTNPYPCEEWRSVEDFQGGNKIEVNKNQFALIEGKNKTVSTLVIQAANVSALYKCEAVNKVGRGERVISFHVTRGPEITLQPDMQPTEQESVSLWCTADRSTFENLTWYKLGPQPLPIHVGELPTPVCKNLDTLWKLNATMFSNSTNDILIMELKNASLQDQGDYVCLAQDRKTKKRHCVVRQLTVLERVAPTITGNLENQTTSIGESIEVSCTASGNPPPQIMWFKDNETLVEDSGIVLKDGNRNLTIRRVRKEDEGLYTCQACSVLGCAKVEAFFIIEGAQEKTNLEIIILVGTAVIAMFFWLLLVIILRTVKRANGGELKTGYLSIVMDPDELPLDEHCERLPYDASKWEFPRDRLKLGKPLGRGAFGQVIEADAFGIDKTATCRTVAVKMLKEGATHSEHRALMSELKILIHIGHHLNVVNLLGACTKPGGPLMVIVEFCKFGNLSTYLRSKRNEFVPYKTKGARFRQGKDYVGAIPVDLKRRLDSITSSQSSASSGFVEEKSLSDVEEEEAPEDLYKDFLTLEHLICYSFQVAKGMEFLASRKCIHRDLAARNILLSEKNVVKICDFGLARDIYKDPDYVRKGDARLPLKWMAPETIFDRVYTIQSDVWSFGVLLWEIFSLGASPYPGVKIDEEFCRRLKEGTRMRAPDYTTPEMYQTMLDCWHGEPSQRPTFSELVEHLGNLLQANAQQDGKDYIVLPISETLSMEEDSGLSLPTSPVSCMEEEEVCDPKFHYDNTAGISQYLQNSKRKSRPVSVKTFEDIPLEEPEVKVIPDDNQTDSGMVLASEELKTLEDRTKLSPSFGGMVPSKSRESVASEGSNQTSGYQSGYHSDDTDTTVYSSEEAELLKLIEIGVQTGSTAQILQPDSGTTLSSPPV
T1 sequence (P07949 29-1114): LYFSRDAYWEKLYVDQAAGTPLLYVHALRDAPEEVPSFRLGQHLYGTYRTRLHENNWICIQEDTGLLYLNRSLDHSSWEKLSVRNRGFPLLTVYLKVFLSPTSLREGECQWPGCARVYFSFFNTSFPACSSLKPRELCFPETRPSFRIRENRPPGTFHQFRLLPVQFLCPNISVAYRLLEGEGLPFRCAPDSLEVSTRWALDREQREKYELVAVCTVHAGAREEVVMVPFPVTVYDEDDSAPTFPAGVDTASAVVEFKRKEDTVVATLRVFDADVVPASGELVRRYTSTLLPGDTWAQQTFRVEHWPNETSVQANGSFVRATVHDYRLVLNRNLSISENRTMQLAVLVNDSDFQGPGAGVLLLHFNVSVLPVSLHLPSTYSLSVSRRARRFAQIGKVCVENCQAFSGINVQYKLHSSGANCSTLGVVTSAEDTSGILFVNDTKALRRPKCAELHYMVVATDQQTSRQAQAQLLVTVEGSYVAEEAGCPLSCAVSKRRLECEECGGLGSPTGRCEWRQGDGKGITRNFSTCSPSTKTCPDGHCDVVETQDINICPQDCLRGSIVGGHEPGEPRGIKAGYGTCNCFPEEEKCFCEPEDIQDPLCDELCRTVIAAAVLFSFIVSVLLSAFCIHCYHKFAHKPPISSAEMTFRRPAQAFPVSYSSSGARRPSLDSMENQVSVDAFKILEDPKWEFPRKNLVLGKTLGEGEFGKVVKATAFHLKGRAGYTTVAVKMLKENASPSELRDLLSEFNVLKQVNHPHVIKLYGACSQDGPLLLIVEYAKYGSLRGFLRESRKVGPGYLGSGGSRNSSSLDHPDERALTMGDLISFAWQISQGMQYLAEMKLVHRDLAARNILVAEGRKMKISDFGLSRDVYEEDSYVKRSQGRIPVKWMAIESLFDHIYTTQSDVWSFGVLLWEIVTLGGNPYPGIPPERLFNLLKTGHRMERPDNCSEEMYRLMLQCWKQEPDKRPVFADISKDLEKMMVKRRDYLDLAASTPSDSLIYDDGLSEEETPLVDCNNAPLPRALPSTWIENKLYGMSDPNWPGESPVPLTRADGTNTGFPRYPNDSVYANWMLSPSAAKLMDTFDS

As to `Cn1ccc(-c2cc(-c3ccc(N4C[C@@H]5CN(S(=O)(=O)c6c(F)cccc6Cl)C[C@@H]5C4)nc3)c3c(C#N)cnn3c2)n1` [Example 179, 4-(6-((3aR,6aS)-5-((2-chloro-6-fluorophenyl)sulfonyl)hexahydropyrrolo[3,4-c]pyrrol-2(1H)-yl)pyridin-3-yl)-6-(1-methyl-1H-pyrazol-3-yl)pyrazolo[1,5-a]pyridine-3-carbonitrile], the IC50 is 10 to 50 nM against human RET kinase, 10 to 50 nM at human KDR kinase and no more than 10 nM with TT cells.

On to `Cn1cc(-c2cc(-c3ccc(N4C[C@@H]5[C@@H](CNC(=O)c6c(F)cccc6Cl)[C@@H]5C4)nc3)c3c(C#N)cnn3c2)cn1` [Example 83, 2-chloro-N-(((1R,5S,6s)-3-(5-(3-cyano-6-(1-methyl-1H-pyrazol-4-yl)pyrazolo[1,5-a]pyridin-4-yl)pyridin-2-yl)-3-azabicyclo[3.1.0]hexan-6-yl)methyl)-6-fluorobenzamide], for which the IC50 on human RET kinase was no more than 10 nM; against human KDR kinase it was 10 to 50 nM; in the assay with TT cells, no more than 10 nM.

`CC(C)(O)COc1cc(-c2ccc(N3C4CC5CC3CC(NS(C)(=O)=O)(C5)C4)nc2)c2c(C#N)cnn2c1` [Example 131, N-((1R,3S,5s,7s)-2-(5-(3-cyano-6-(2-hydroxy-2-methylpropoxy)pyrazolo[1,5-a]pyidin-4-yl)pyridin-2-yl)-2-azaadamantan-5-yl)methanesulfonamide]: the results for the IC50 on human RET kinase, against human KDR kinase and in the assay with TT cells were no more than 10 nM, 50 to 100 nM and 10 to 50 nM, respectively.

Regarding `Cn1cc(-c2cc(-c3ccc(N4C[C@@H]5[C@H](C4)[C@H]5NC(=O)c4cc(F)ccc4Cl)nc3)c3c(C#N)cnn3c2)cn1` [Example 28, 2-chloro-N-((1R,5S,6s)-3-(5-(3-cyano-6-(1-methyl-1H-pyrazol-4-yl)pyrazolo[1,5-a]pyridin-4-yl)pyridin-2-yl)-3-azabicyclo[3.1.0]hexan-6-yl)-5-fluorobenzamide], the IC50 at human RET kinase is no more than 10 nM; against human KDR kinase, no more than 10 nM; in the assay with TT cells, 10 to 50 nM.

Turning to `CC(C)C(=O)N[C@H]1[C@@H]2CN(c3ccc(-c4cc(-c5cnn(C)c5)cn5ncc(C#N)c45)cn3)C[C@@H]21` [Example 31, N-((1R,5 S,6s)-3-(5-(3-cyano-6-(1-methyl-1H-pyrazol-4-yl)pyrazolo[1,5-a]pyridin-4-yl)pyridin-2-yl)-3-azabicyclo[3.1.0]hexan-6-yl)isobutyramide], the IC50 is no more than 10 nM at human RET kinase, 10 to 50 nM against human KDR kinase and 50 to 100 nM in the assay with TT cells.

`Cn1cc(-c2cc(-c3ccc(N4C5CC6CC4CC(NC(=O)c4ncccc4Cl)(C6)C5)nc3)c3c(C#N)cnn3c2)cn1` [Example 89, 3-chloro-N-((1R,3S,5s,7s)-2-(5-(3-cyano-6-(1-methyl-1H-pyrazol-4-yl)pyrazolo[1,5-a]pyridin-4-yl)pyridin-2-yl)-2-azaadamantan-5-yl)picolinamide]: the IC50 against human RET kinase, at human KDR kinase and in the assay with TT cells was no more than 10 nM throughout.

On to `CC(C)C(O)C(=O)N1C[C@@H]2CN(c3ccc(-c4cc(-c5cnn(C)c5)cn5ncc(C#N)c45)cn3)C[C@@H]2C1` (stereo partly drawn) [Example 2], for which the IC50 on human RET kinase is no more than 10 nM; against human KDR kinase, 10 to 50 nM; in the assay on TT cells, 10 to 50 nM.

On to `CC(C)(O)COc1cc(-c2ccc(N3C[C@@H]4[C@H](C3)[C@@H]4NC(=O)c3ncccc3Cl)nc2)c2c(C#N)cnn2c1` [Example 44, 3-chloro-N-((1R,5S,6r)-3-(5-(3-cyano-6-(2-hydroxy-2-methylpropoxy)pyrazolo[1,5-a]pyridin-4-yl)pyridin-2-yl)-3-azabicyclo[3.1.0]hexan-6-yl)picolinamide], for which the IC50 was 50 to 100 nM on human RET kinase, greater than 100 nM at human KDR kinase and greater than 100 nM with TT cells.

With `CC(C)C(O)C(=O)N[C@H]1[C@@H]2CN(c3ccc(-c4cc(-c5cnn(C)c5)cn5ncc(C#N)c45)cc3)C[C@@H]21` (stereo partly drawn) [Example 16, N-((1R,5S,6s)-3-(4-(3-cyano-6-(1-methyl-1H-pyrazol-4-yl)pyrazolo[1,5-a]pyridin-4-yl)phenyl)-3-azabicyclo[3.1.0]hexan-6-yl)-2-hydroxy-3-methylbutanamide], the IC50 at human RET kinase was no more than 10 nM; against human KDR kinase, 10 to 50 nM; in the assay with TT cells it was 10 to 50 nM.

`COc1ccc(NC(=O)N[C@H]2[C@@H]3CN(c4ccc(-c5cc(OCC(C)(C)O)cn6ncc(C#N)c56)cn4)C[C@@H]32)cn1` [Example 183, 1-((1R,5S,6s)-3-(5-(3-cyano-6-(2-hydroxy-2-methylpropoxy)pyrazolo[1,5-a]pyridin-4-yl)pyridin-2-yl)-3-azabicyclo[3.1.0]hexan-6-yl)-3-(6-methoxypyridin-3-yl)urea]: the IC50 is 10 to 50 nM at human RET kinase, greater than 100 nM at human KDR kinase and greater than 100 nM in the assay on TT cells.

As to `CCOc1cc(-c2ccc(N3C[C@@H]4C[C@@](C)(NC(=O)c5c(C)cccc5Cl)C[C@@H]4C3)nc2)c2c(C#N)cnn2c1` [Example 63, 2-chloro-N-((3aR,5s,6aS)-2-(5-(3-cyano-6-ethoxypyrazolo[1,5-a]pyridin-4-yl)pyridin-2-yl)-5-methyloctahydrocyclopenta[c]pyrrol-5-yl)-6-methylbenzainide], the IC50 against human RET kinase was no more than 10 nM; at human KDR kinase, 50 to 100 nM; with TT cells it was 10 to 50 nM.

Turning to `Cn1ccc(-c2cc(-c3cnc(N4C[C@@H]5C[C@@](C)(NC(=O)c6c(F)cccc6Cl)C[C@@H]5C4)cn3)c3c(C#N)cnn3c2)n1` [Example 100, 2-chloro-N-((3aR,5s,6aS)-2-(5-(3-cyano-6-(1-methyl-1H-pyrazol-3-yl)pyrazolo[1,5-a]pyridin-4-yl)pyrazin-2-yl)-5-methyloctahydrocyclopenta[c]pyrrol-5-yl)-6-fluorobenzamide], the IC50 is no more than 10 nM against human RET kinase, 10 to 50 nM on human KDR kinase and no more than 10 nM in the assay with TT cells.

Take `CC(O)COc1cc(-c2ccc(N3C[C@H]4CN(C(=O)c5ncccc5Cl)C[C@H]4C3)nc2)c2c(C#N)cnn2c1` (stereo partly drawn) [Example 8, 4-(6-((3aR,6aS)-5-(3-chloropicolinoyl)hexahydropyrrolo[3,4-c]pyrrol-2(1H)-yl)pyridin-3-yl)-6-(2-hydroxypropoxy)pyrazolo[1,5-a]pyridine-3-carbonitrile]: the IC50 against human RET kinase is no more than 10 nM; at human KDR kinase, greater than 100 nM; in the assay on TT cells it was 10 to 50 nM.
